From paper PMC7179955 (Pharmaceutical research, 2016)
Values after ≈ are worked out from the molar mass of the structure shown. Counter-ions that a name gives are not always drawn. Like-named read-outs stand apart in the source and are kept apart here. One block for each compound: values may come before it.

Tests used:
[1] = addition of 100 mg ritonavir to 300 mg atazanavir; cited from earlier work
[2] = human, in vivo
[3] = cited from earlier work
[4] = tested on: P-gp; conditions: cited from earlier work
[5] = cited from earlier work; remark: listed apart in the source
[6] = tested on: gastric pH; conditions: cited from earlier work
[7] = tested on: gastric pH; test: Intra-gastric pH monitoring with the Heidelberg pH capsule; format: in vivo, human
[8] = administered with Coca-Cola (pH = 2.5) compared to water; cited from earlier work
[9] = fed state, rabeprazole pretreated

- AUClast lost due to rabeprazole that was restored by addition of BHCl [2]: 12%
- Differences in Tmax across treatments [2]: No significant differences
- Individual decrease in AUClast and Cmax after rabeprazole pretreatment [2]: 11-48%
- Mean exposure lost due to rabeprazole that was restored by addition of BHCl [2]: 12-13%
- Mean plasma concentration in Treatment C compared with Treatment B ([2]; 1.5 h): 3.4 times
Compound: COC(=O)N[C@H](C(=O)N[C@@H](Cc1ccccc1)[C@@H](O)CN(Cc1ccc(-c2ccccn2)cc1)NC(=O)[C@@H](NC(=O)OC)C(C)(C)C)C(C)(C)C [Atazanavir]
- Increase in atazanavir AUC [1]: 238%
- Increase in atazanavir Cmax [1]: 86%
- Reductions in boosted atazanavir exposures ([3]; omeprazole 20 mg once daily): 39-46%
- Exposure reductions ([3]; ritonavir-boosted atazanavir with omeprazole 40 mg once daily, light meal): 72-76%
- Inhibitory effect of a known P-gp inhibitor on atazanavir efflux ([4]; pH 5.5): 78%
- Inhibitory effect of a known P-gp inhibitor on atazanavir efflux ([4]; pH 7.4): 245%
- Solubility ([5]; pH 2): 5200 µg/mL (≈ 7.38 mM)
- Solubility ([5]; pH 4): < 5 µg/mL

Compound: C[N+](C)(C)CC(=O)O [BHCl, betaine hydrochloride]
- Average onset of effect (time to achieve a pH < 3) ([6]; pilot study, rabeprazole-pretreated healthy volunteers): ~5 minutes
- Lowest observed gastric pH ([7]; 1500 mg BHCl after rabeprazole pretreatment, fed state, mean ± SD): 0.838 ±0.391
- Length of the reacidification period (time for gastric pH to rebound to pH >4) [7, 9]: 76 ±20 minutes
- Time to achieve lowest gastric pH after BHCl administration [7, 9]: 67 ±33 minutes

- AUClast lost due to rabeprazole that was restored by addition of BHCl [2]: 13%
- Cmax lost due to rabeprazole that was restored by addition of BHCl [2]: 12%
Compound: CC(C)c1nc(CN(C)C(=O)N[C@H](C(=O)N[C@@H](Cc2ccccc2)C[C@H](O)[C@H](Cc2ccccc2)NC(=O)OCc2cncs2)C(C)C)cs1 [Ritonavir]

Compound: COc1ccc2[nH]c([S+]([O-])Cc3ncc(C)c(OC)c3C)nc2c1 (stereo not shown) [omeprazole]
- Gastric pH around the time of atazanavir administration ([6]; pretreatment with high-dose omeprazole): ~6

Compound: CC[C@@H]([C@H](C)O)n1ncn(-c2ccc(N3CCN(c4ccc(OC[C@@H]5CO[C@@](Cn6cncn6)(c6ccc(F)cc6F)C5)cc4)CC3)cc2)c1=O [posaconazole]
- Increase in systemic exposure [8]: > 70%

Compound: COCCCOc1ccnc(C[S+]([O-])c2nc3ccccc3[nH]2)c1C (stereo not shown) [rabeprazole]
- Gastric pH around the time of atazanavir administration ([7]; pretreatment with rabeprazole, after light meal): ~3
